Experimental data published in PMC11243625, “Synthesis, Docking, and Machine Learning Studies of Some Novel Quinolinesulfonamides–Triazole Hybrids with Anticancer Activity” (Molecules, 2024).
Entries after “also recorded” stand apart in the source; their conditions may differ. Read-outs that look alike come from different tables or passages of the source.

What was measured:
SNB-19 = assay: WST-1 test, glioblastoma cells; type: cell-based, human
Experimental: (§1) Hybrids 4–14 were tested as anticancer agents against four human cancer cell lines: colon cancer (Caco-2), glioblastoma (SNB-19), lung cancer (A549), ovarian cancer (SKOV-3), and normal human dermal fibroblasts (NHDFs). Cisplatin was used as the reference substance. The results are presented as the compound concentration of the compound (μM) that inhibits the growth of 50% of cancer cells compared to control cells (IC50). A negative value (Neg) means that the compound concentration of the tested hybrids was greater than 500 µM. […] It is generated only by a weak van der Waals interaction with Arg84. […] There is also a visible difference in activity depending on the type of group present on the triazole ring (substituent C in Figure 2). The results obtained indicate that hybrids containing aromatic systems as a C substituent in their structure, especially another quinoline molecule (compounds 9 and 10), have high activity.
(§2) Cell cultures were performed in 96-well plates (Nunc Thermo Fisher Scientific, Waltham, MA, USA). Cells were seeded at 5 × 10^4/well and incubated for 24 h (at 37 °C, 5% CO2, and constant humidity). The medium was replaced with fresh with the addition of test compounds at a concentration of 0.1–100 µg/mL of DMSO and incubated again for another 72 h. After this time, the WST-1 test (Roche Molecular Biochemicals, Mannheim, Germany) was performed to assess the metabolic activity of the cells. Absorbance was measured at λ = 450 nm using a UVM340 microplate reader (Biogenet, Józefów, Poland). Results are expressed as the mean value of at least three independent experiments performed in triplicate.

NHDF = assay: WST-1 test, normal human dermal fibroblasts; type: cell-based; settings: 72 h, WST-1, normal cells
Experimental: as §1, §2

SKOV-3 = assay: WST-1 test, ovarian cancer cells; type: cell-based, human
Experimental: as §1, §2

A549 [1] = assay: WST-1 test, lung cancer cells; type: cell-based, human; settings: for IC50: read-out: IC50 A-549
Experimental: as §1, §2

Caco-2 = assay: WST-1 test, colon cancer cells; type: cell-based, human
Experimental: Hybrids 4–14 were tested as anticancer agents against four human cancer cell lines: colon cancer (Caco-2), glioblastoma (SNB-19), lung cancer (A549), ovarian cancer (SKOV-3), and normal human dermal fibroblasts (NHDFs).
as §2

A549 [2] = tested on: A549; set-up: method as in doi:10.1016/j.arabjc.2016.10.009; settings: values marked *; read-out: IC50 A-549; cited from earlier work

Row | Structure (SMILES) | IC50 (SNB-19; 72 h) [µM] | IC50 (SNB-19; Homo sapiens, SNB-19, 72 h) [µM] | IC50 (SKOV-3; Homo sapiens, SK-OV-3, 72 h) [µM] | melting point [°C] | IC50 (Caco-2; Homo sapiens, Caco-2, 72 h) [µM] | IC50 (A549 [1]; Homo sapiens, A549, 72 h) [µM] | IC50 A-549 (A549 [1]; 72 h) | IC50 (Caco-2; 72 h) [µM] | IC50 (NHDF) [µM] | IC50 (SKOV-3; 72 h) [µM] | IC50 (A549 [1]; 72 h) [µM] | IC50 (NHDF; Homo sapiens, NHDF) [µM] | IC50 NHDF (NHDF) | IC50 (A549 [2]) [µM]
1 | N.N.[Cl][Pt][Cl] [Cisplatin, reference compound] | 2.93 | – | – | – | – | – | – | – | > 500 | 41.6 | 453 | – | – | –
2 | O=S(=O)(NCc1cn(Cc2ccccc2)nn1)c1cccc2cccnc12 [Compound 4a, 8-N-[(1-Benzyl-1H-1,2,3-triazol-4-yl)methyl]quinolinesulfonamide] | – | > 500 | > 500 | 125 to 126 | 26.4 | > 500 | – | – | – | – | – | > 500 | – | –
3 | CN(Cc1cn(Cc2ccc(C#N)cc2)nn1)S(=O)(=O)c1cccc2cccnc12 [Compound 5b, 8-N-Methyl-N-{[1-(4-cyanobenzyl)-1H-1,2,3-triazol-4-yl]methyl}quinolinesulfonamide] | – | 0.41 | 14.1 | 112 to 113 | 0.4 | 0.8 | nanomolar concentration range | – | – | – | – | 9.16 | have activity against normal cells | –
4 | O=S(=O)(NCc1cn(CSc2ccccc2)nn1)c1cccc2cccnc12 [Compound 8a, 8-N-[(1-Methylthiophenyl-1H-1,2,3-triazol-4-yl)methyl]quinolinesulfonamide] | – | 72.4 | 115 | 106 to 107 | 14.3 | 3.69 | – | – | – | – | – | 40.6 | – | –
5 | CN(Cc1cn(CSc2ccccc2)nn1)S(=O)(=O)c1cccc2cccnc12 [Compound 8b, 8-N-Methyl-N-[(1-methylthiophenyl-1H-1,2,3-triazol-4-yl)methyl]quinolinesulfonamide] | 0.35 | ≤ 0.4 | > 500 | 118 to 119 | 0.34 | > 500 | – | – | – | – | – | > 500 | – | –
6 | CN(Cc1cn(-c2ccnc3cc(Cl)ccc23)nn1)S(=O)(=O)c1cccc2cccnc12 [Compound 9b, 8-N-Methyl-N-{[1-(7-chloroquinolin-4-yl)-1H-1,2,3-triazol-4-yl]methyl}quinolinesulfonamide] | 0.38 | ≤ 0.4 | 4.16 | 189 to 190 | 0.26 | 0.4 | nanomolar concentration range | – | – | – | – | > 500 | lack of cytotoxicity; also recorded: no activity towards NHDF | –
7 | O=S(=O)(NCc1cn(-c2ccnc3c(Br)cccc23)nn1)c1cccc2cccnc12 [Compound 10a, 8-N-{[1-(8-Bromoquinolin-4-yl)-1H-1,2,3-triazol-4-yl]methyl}quinolinesulfonamide] | – | 37.4 | 94.5 | 194 to 195 | 9.69 | 113 | – | – | – | – | – | > 500 | – | –
8 | CCCCn1cc(CN(C)S(=O)(=O)c2cccc3cccnc23)nn1 [Compound 12b, 8-N-Methyl-N-{[1-(1-butyl)-1H-1,2,3-triazol-4-yl]methyl}quinolinesulfonamide] | – | 63.6 | 80.4 | 74 to 75 | 1.29 | 189 | – | – | – | – | – | 242 | – | –
9 | C=C(Cn1cc(CNS(=O)(=O)c2cccc3cccnc23)nn1)[C@@H]1CC[C@]2(COC(C)=O)CC[C@]3(C)[C@H](CC[C@@H]4[C@@]5(C)CC[C@H](OC(C)=O)C(C)(C)[C@@H]5CC[C@]43C)[C@@H]12 [Compound 14a, 8-N-({1-[3β, 28-Diacetoxylup-20(29)-en-30-yl]-1H-1,2,3-triazol-4-yl}methyl)-quinolinesulfonamide] | – | 101 | > 500 | 148 to 149 | > 500 | > 500 | – | – | – | – | – | > 500 | – | –

The next lines start with results.

Row | IC50 (SNB-19; 72 h) [µM] | IC50 (SNB-19; Homo sapiens, SNB-19, 72 h) [µM] | IC50 (SKOV-3; Homo sapiens, SK-OV-3, 72 h) [µM] | melting point [°C] | IC50 (Caco-2; Homo sapiens, Caco-2, 72 h) [µM] | IC50 (A549 [1]; Homo sapiens, A549, 72 h) [µM] | IC50 A-549 (A549 [1]; 72 h) | IC50 (Caco-2; 72 h) [µM] | Structure (SMILES) | IC50 (NHDF) [µM] | IC50 (SKOV-3; 72 h) [µM] | IC50 (A549 [1]; 72 h) [µM] | IC50 (NHDF; Homo sapiens, NHDF) [µM] | IC50 NHDF (NHDF) | IC50 (A549 [2]) [µM]
10 | – | 1.18 | 66.2 | 103 to 105 | 0.4 | 7.72 | – | – | CN(Cc1cn(Cc2ccccc2)nn1)S(=O)(=O)c1cccc2cccnc12 [Compound 4b, 8-N-Methyl-N-[(1-benzyl-1H-1,2,3-triazol-4-yl)methyl]quinolinesulfonamide] | – | – | – | 191 | – | –
11 | – | > 500 | > 500 | 110 to 111 | 2.21 | > 500 | – | – | N#Cc1ccc(Cn2cc(CNS(=O)(=O)c3cccc4cccnc34)nn2)cc1 [Compound 5a, 8-N-{[1-(4-Cyanobenzyl)-1H-1,2,3-triazol-4-yl]methyl}quinolinesulfonamide] | – | – | – | > 500 | – | –
12 | – | > 500 | > 500 | 118 to 119 | 27.5 | > 500 | – | – | O=S(=O)(NCc1cn(Cc2ccc(F)cc2)nn1)c1cccc2cccnc12 [Compound 6a, 8-N-{[1-(4-Fluorobenzyl)-1H-1,2,3-triazol-4-yl]methyl}quinolinesulfonamide] | – | – | – | > 500 | – | –
13 | – | 156 | > 500 | 85 to 86 | 19.3 | > 500 | – | – | CN(Cc1cn(Cc2ccc(F)cc2)nn1)S(=O)(=O)c1cccc2cccnc12 [Compound 6b, 8-N-Methyl-N-{[1-(4-fluorobenzyl)-1H-1,2,3-triazol-4-yl]methyl}quinolinesulfonamide] | – | – | – | > 500 | – | –
14 | – | 0.83 | 16.9 | 135 to 136 | 0.31 | 36.1 | – | – | O=[N+]([O-])c1ccc(Cn2cc(CNS(=O)(=O)c3cccc4cccnc34)nn2)cc1 [Compound 7a, 8-N-{[1-(4-Nitrobenzyl)-1H-1,2,3-triazol-4-yl]methyl}quinolinesulfonamide] | – | – | – | 169 | – | –
15 | – | 0.41 | > 500 | 103 to 105 | 2.47 | > 500 | – | – | CN(Cc1cn(Cc2ccc([N+](=O)[O-])cc2)nn1)S(=O)(=O)c1cccc2cccnc12 [Compound 7b, 8-N-Methyl-N-{[1-(4-nitrobenzyl)-1H-1,2,3-triazol-4-yl]methyl}quinolinesulfonamide] | – | – | – | > 500 | – | –
16 | – | 62.4 | 108 | – | 18 | – | – | – | O=S(=O)(NCc1cn(-c2ccnc3cc(Cl)ccc23)nn1)c1cccc2cccnc12 [Compound 9a, 8-N-{[1-(7-chloroquinolin-4-yl)-1H-1,2,3-triazol-4-yl]methyl}quinolinesulfonamide] | – | – | – | > 500 | – | > 500
17 | 0.3 | ≤ 0.4 | 24.7 | 206 to 207 | ≥ 0.3 | 1.77 | – | 0.3 | CN(Cc1cn(-c2ccnc3c(Br)cccc23)nn1)S(=O)(=O)c1cccc2cccnc12 [Compound 10b, 8-N-Methyl-N-{[1-(8-bromoquinolin-4-yl)-1H-1,2,3-triazol-4-yl]methyl}quinolinesulfonamide] | – | – | – | 26.2 | have activity against normal cells | –
18 | – | 129 | 143 | 149 to 150 | 0.36 | 18.1 | – | – | Cc1cn(C2CC(n3cc(CNS(=O)(=O)c4cccc5cccnc45)nn3)C(CO)O2)c(=O)[nH]c1=O [Compound 11a, 8-N-({1-[(2R, 3S, 5S)-2-(Hydroxymethyl)-5-(5-methyl-2,4-dioxo-3,4-dihydropyrimidin-1(2H)-yl)tertrahydrofuran-3-yl]-1H-1,2,3-triazol-4-yl}methyl)quinolinesulfonamide] | – | – | – | 195 | – | –
19 | – | 0.59 | 7.16 | 176 to 178 | 0.48 | 1.29 | – | – | Cc1cn(C2CC(n3cc(CN(C)S(=O)(=O)c4cccc5cccnc45)nn3)C(CO)O2)c(=O)[nH]c1=O [Compound 11b, 8-N-Methyl-N-({1-[(2R, 3S, 5S)-2-(hydroxymethyl)-5-(5-methyl-2,4-dioxo-3,4-dihydropyrimidin-1(2H)-yl)tertrahydrofuran-3-yl]-1H-1,2,3-triazol-4-yl}methyl)quinolinesulfonamide] | – | – | – | 98.3 | have activity against normal cells | –
20 | – | 138 | 88.2 | – | 85.2 | > 500 | – | – | CCOC(=O)CCn1cc(CN(C)S(=O)(=O)c2cccc3cccnc23)nn1 [Compound 13b, Ethyl 3-{[4-(N-methylsulfamoyl-8-quinolyl)methyl]-1H-1,2,3-triazol-1-yl}propanoate] | – | – | – | > 500 | – | –
